Measurements reported in US10280197B2, “Discovery of the first selective C5A receptor 2 (C5L2/C5AR2) ligands” (The Regents of the University of California, priority 2015, dated 2019).

How the values were obtained:
C5a1-C5a2 heteromer = target: T1, C5a1-C5a2 heteromer (Homo sapiens, UniProt P21730+Q9P296); assay: BRET ligand-induced heteromer formation between C5a1 and C5a2; assay type: cell-based; details: P32 or P59 100 μM
T1 construct: expressed in transfected cells; host or cells: HEK293 (transient)
Procedure: Assays were performed as a ligand-induced BRET experiment similar to previously described^17, 31, 49. In brief, HEK293 cells were transiently transfected with either C5a1-Rluc8 and β-arrestin 2-Venus or C5a2-Venus and β-arrestin 2-Rluc8 or C5a1-Rluc8 and C5a2-Venus in a 100-mm dish. 24 h after transfection cells were collected and transferred to a 96-well white microplate (Corning, N.Y., USA) in phenol-red free DMEM containing 5% FBS and 25 mM HEPES (Life Technologies). Cells were allowed to settle for 24 h and then were incubated with 30 μM Enduren (Promega, Madison, Wis., USA) for 2 h at 37° C. and 5% CO2 to ensure that the substrate had reached equilibrium. Following incubation BRET baseline measurements were taken for 15 min then ligands were added to plate and BRET measurements were taken for a further 1 h at 37° C. using a POLARstar optima microplate reader (BMG Labtech, Ortenberg, Germany). Filtered light emissions were sequentially measured for 1 s in each of the following windows 460-490 nm and 520-550 nm, both before and following ligand addition. The ligand-induced BRET ratio was calculated by subtracting the ratio of 520-550 nm emission over the 460-490 nm emission for a vehicle-treated sample from a ligand-treated sample of the same aliquot of cells in triplicate. […]

C5a2 [1] = target: T2, C5a2 (Homo sapiens, UniProt Q9P296); assay: DiscoveRx PathHunter β-arrestin 2 recruitment, C5a2; assay type: cell-based; parameters: purchased DiscoveRx Corporation (Birmingham, UK); details: 100 μM, data not shown
Target sequence in this assay (Q9P296 whole entry): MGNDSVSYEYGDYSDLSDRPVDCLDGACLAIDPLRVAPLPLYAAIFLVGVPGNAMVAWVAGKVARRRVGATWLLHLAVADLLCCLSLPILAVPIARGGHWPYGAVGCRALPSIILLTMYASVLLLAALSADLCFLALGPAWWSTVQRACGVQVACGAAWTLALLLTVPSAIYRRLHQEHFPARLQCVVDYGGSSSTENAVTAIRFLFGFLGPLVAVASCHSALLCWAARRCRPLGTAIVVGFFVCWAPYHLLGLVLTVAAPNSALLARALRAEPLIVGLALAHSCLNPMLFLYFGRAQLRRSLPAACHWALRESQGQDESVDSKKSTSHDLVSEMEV

LPS stimulated HMDM = assay: Cytokine release from LPS stimulated HMDM (ELISA); assay type: cell-based, human; details: for IL-6 release from LPS stimulated HMDM / IL-10 release from LPS stimulated HMDM / TNFα release from LPS stimulated HMDM: 24 h after co-stimulation with LPS 10 ng/ml, peptides 0.1-100 μM; for IL-6 release from LPS stimulated HMDM in the presence of PMX53: C5a1 antagonist PMX53 10 μM pre-incubated 30 min
Procedure: FIG. 4 is a panel of graphs showing the testing P32 and P59 for effects on cytokine release from LPS stimulated HMDM. Measurement of human inflammatory cytokines IL-6 (4A, 4B), TNFα (4C, 4D) and IL-10 (4E, 4F) release from HMDM, 24 h after co-stimulation with LPS (10 ngml^−1) and C5a (0.1-100 nM), P32 or P59 (0.1-100 μM) with or without C5a1 antagonist PMX53 (10 μM) present. Cytokine release was quantified by ELISA. Data is representative of five independent HMDM donors performed in triplicate (n=5). CTRL represents non-stimulated HMDM. Data is normalised to LPS response (100%) for each donor. Error bars represent SEM. *P<0.05, ** P<0.01, *** P<0.001, **** P<0.0001 by one-way ANOVA followed by Dunnett's post hoc test or Sidak's post hoc test for comparisons+/−PMX53.
Briefly, HMDMs were seeded in 96 well tissue culture plates (Nunc) at 100 000 cells/well and allowed to adhere overnight at 37° C. and 5% CO2. The next day HMDMs were stimulated with E. coli derived LPS (10 ng ml^−1) only or LPS (10 ng ml^−1) and either C5a or C5a2 ligands at various concentrations (1-100 nM (C5a) or 0.1-100 μM (C5a2 ligands)). For testing cytokine release in the presence of C5a1 antagonist (PMX53), cells were pre-incubated with PMX53 at 10 μM for 30 min prior to addition of C5a or C5a2 ligands. Following ligand addition HMDMs were returned to 37° C. and 5% CO2 incubator and 24 h after stimulation supernatant was removed from cells and transferred to 96 well polypropylene microplate (Nunc) and stored at −20° C. till needed for assay. Quantification of cytokine release was performed using ELISA kits (BD OptEIA™) as per manufacturers' instructions (BD Biosciences, San Jose, Calif., USA).

C3aR = target: T3, C3aR (Homo sapiens, UniProt Q16581); details: up to a concentration of 100 μM, reference 27; cited from earlier work
T3 sequence (Q16581 1-482): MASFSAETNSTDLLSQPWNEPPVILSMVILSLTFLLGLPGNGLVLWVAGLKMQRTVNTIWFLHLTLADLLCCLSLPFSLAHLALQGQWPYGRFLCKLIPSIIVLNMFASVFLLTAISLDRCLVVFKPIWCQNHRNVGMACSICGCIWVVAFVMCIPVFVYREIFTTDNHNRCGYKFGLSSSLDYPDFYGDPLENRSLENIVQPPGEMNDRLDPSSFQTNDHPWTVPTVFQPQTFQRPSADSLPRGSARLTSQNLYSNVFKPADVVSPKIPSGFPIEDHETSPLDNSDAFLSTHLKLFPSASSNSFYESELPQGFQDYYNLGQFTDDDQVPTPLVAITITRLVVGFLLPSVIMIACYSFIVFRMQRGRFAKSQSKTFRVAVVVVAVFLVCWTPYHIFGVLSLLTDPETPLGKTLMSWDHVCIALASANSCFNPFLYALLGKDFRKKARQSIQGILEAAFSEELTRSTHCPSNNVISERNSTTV

C5a2 [2] = target: T2, C5a2; assay: BRET C5a2-β-arrestin 2 recruitment assay in HEK293 cells; assay type: cell-based; parameters: expressed in transfected cells; host or cells: HEK293 (transient); details: for efficacy for β-arrestin 2 recruitment relative to affinity for C5a2: EC50 versus Ki; for EC50: calculated at ~40 min after ligand addition; for type of activity for recruitment of β-arrestin 2 via C5a2: compared to C5a
Procedure: Assays were performed as a ligand-induced BRET experiment similar to previously described^17, 31, 49. In brief, HEK293 cells were transiently transfected with either C5a1-Rluc8 and β-arrestin 2-Venus or C5a2-Venus and β-arrestin 2-Rluc8 or C5a1-Rluc8 and C5a2-Venus in a 100-mm dish. 24 h after transfection cells were collected and transferred to a 96-well white microplate (Corning, N.Y., USA) in phenol-red free DMEM containing 5% FBS and 25 mM HEPES (Life Technologies). Cells were allowed to settle for 24 h and then were incubated with 30 μM Enduren (Promega, Madison, Wis., USA) for 2 h at 37° C. and 5% CO2 to ensure that the substrate had reached equilibrium. Following incubation BRET baseline measurements were taken for 15 min then ligands were added to plate and BRET measurements were taken for a further 1 h at 37° C. using a POLARstar optima microplate reader (BMG Labtech, Ortenberg, Germany). Filtered light emissions were sequentially measured for 1 s in each of the following windows 460-490 nm and 520-550 nm, both before and following ligand addition. The ligand-induced BRET ratio was calculated by subtracting the ratio of 520-550 nm emission over the 460-490 nm emission for a vehicle-treated sample from a ligand-treated sample of the same aliquot of cells in triplicate. The BRET ratio was calculated by subtracting the ratio of 520-550 nm emission over the 460-490 nm emission for a cell sample containing the C5a1-Rluc8 or β-arrestin 2-Rluc8 construct from a cell sample containing both the C5a1-Rluc8 and β-arrestin 2-Venus or C5a2-Venus and β-arrestin 2-Rluc8 or C5a1-Rluc8 and C5a2-Venus constructs. Peptides were also tested for ligand-induced β-arrestin 2 recruitment at 100 μM using DiscoveRx PathHunter kits for human C5a1 and C5a2 (DiscoveRx Corporation. Birmingham, UK), according to the manufacturer's instructions.
Target sequence in this assay (Q9P296 whole entry): as the sequence (Q9P296 whole entry) above
Target sequence in this assay (P32121 whole entry partner): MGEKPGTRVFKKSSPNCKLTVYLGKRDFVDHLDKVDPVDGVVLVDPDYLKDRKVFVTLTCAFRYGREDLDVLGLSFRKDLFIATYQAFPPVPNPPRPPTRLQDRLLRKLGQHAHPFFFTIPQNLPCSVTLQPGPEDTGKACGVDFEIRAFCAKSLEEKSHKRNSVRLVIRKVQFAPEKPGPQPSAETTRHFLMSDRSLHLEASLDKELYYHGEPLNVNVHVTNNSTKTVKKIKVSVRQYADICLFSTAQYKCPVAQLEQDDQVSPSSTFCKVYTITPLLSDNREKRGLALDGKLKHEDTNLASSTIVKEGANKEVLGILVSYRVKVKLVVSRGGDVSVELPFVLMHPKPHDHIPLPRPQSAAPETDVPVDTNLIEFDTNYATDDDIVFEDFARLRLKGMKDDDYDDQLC

T1 sequence (P21730 whole entry): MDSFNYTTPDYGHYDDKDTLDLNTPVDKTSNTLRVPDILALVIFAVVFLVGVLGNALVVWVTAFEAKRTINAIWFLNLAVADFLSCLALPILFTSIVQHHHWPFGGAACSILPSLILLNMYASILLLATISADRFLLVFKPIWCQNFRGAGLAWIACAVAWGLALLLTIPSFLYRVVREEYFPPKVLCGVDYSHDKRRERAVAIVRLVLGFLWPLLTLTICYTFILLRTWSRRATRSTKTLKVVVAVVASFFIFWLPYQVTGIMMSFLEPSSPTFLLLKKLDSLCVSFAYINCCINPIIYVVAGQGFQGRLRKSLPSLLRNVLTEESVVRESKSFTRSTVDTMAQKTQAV
T1 sequence (Q9P296 whole entry): as the sequence (Q9P296 whole entry) above

| Substance | up-regulation of heteromer formation between C5a1-C5a2 (C5a1-C5a2 heteromer) | ligand induced β-arrestin 2 recruitment at C5a2 (PathHunter) (C5a2 [1]) | IL-6 release from LPS stimulated HMDM (LPS stimulated HMDM) | IL-10 release from LPS stimulated HMDM (LPS stimulated HMDM) | TNFα release from LPS stimulated HMDM (LPS stimulated HMDM) | IL-6 release from LPS stimulated HMDM in the presence of PMX53 (LPS stimulated HMDM) | activity (agonist or antagonist) at C3aR (C3aR) | C5a2-β-arrestin 2 BRET Recruitment (% of C5a) (C5a2 [2]) | efficacy for β-arrestin 2 recruitment relative to affinity for C5a2 (C5a2 [2]) | EC50 (C5a2 [2]) | type of activity for recruitment of β-arrestin 2 via C5a2 (C5a2 [2]) |
| --- | --- | --- | --- | --- | --- | --- | --- | --- | --- | --- | --- |
| Ac-LIRLWR-OH [Peptide P59, Ac-LIRLWR-OH] | neither P32 or P59 were able to up-regulate heteromer formation | showed activity at C5a2 | only showed significant inhibition of IL-6 at 100 μM | no effect | no effect | unaffected | no activity | 52.9 % of C5a | ~6 fold | 7.6 ± 0.6 µM | partial agonists |
| Ac-RHYPYWR-OH [Peptide P32, Ac-RHYPYWR-OH] | neither P32 or P59 were able to up-regulate heteromer formation | showed activity at C5a2 | significant inhibition of IL-6 release at two (10 and 100 μM) of the four doses tested | no effect | no effect | unaffected | no activity | 28.8 % of C5a | ~37 fold | 5.9 ± 3.4 µM | partial agonists |
